In the assay the target is Factor IXa (Homo sapiens, UniProt P00740). In words: Determination of inhibitory activity against Factor IXa (cleavage of fluorescent peptide substrate). The class given is biochemical. To be noted: cleavage of fluorescent peptide CH3SO2-D-CHG-Gly-Arg-AFC, release of AFC; read-out: FIXa IC50. An outline of the steps: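 Factor IXa activity followed via cleavage of CH3SO2-D-CHG-Gly-Arg-AFC, releasing AFC. Fluorescence read at excitation 405 nm, emission 510 nm.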
Chain of Factor IXa (P00740 227-461 limits assumed): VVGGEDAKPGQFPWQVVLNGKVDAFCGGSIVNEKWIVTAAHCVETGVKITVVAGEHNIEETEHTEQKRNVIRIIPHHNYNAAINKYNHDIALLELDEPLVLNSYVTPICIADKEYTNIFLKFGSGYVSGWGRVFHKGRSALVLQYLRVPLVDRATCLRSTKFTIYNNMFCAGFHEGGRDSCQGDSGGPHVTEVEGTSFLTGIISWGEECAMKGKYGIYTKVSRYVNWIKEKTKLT
Chain of Factor IXa (P00740 47-191 partner limits assumed): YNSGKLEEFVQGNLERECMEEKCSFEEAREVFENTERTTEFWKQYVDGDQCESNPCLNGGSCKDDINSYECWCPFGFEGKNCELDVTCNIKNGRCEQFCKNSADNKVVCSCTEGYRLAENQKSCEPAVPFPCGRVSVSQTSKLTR

Regarding `C[C@](O)(C(=O)Nc1ccc2c(N)noc2c1)[C@H]1OCCN(c2ccn(-c3ccc(S(C)(=O)=O)cc3)n2)C1=O` [Example 14, (R)—N-(3-aminobenzo[d]isoxazol-6-yl)-2-hydroxy-2-((R)-4-(1-(4-(methylsulfonyl)phenyl)-1H-pyrazol-3-yl)-3-oxomorpholin-2-yl)propanamide], the IC50 stood at 13.2 nM.

As to `C[C@H]1CN(c2ccn(-c3cnnc(C#N)c3)n2)C(=O)[C@@H]([C@@H](O)C(=O)Nc2ccc3c(N)noc3c2)O1` [Example 155, (R)—N-(3-Aminobenzo[d]isoxazol-6-yl)-2-((2R,6S)-4-(1-(6-cyanopyridazin-4-yl)-1H-pyrazol-3-yl)-6-methyl-3-oxomorpholin-2-yl)-2-hydroxyacetamide], the IC50 was 1.96 nM.

As for `C[C@](O)(C(=O)Nc1ccc2c(N)noc2c1)[C@H]1OCCN(c2ccn(-c3ccnc(C(F)(F)F)c3)n2)C1=O` [Example 22, (R)—N-(3-aminobenzo[d]isoxazol-6-yl)-2-hydroxy-2-((R)-3-oxo-4-(1-(2-(trifluoromethyl)pyridin-4-yl)-1H-pyrazol-3-yl)morpholin-2-yl)propanamide], the IC50 worked out at 36.9 nM.

As to `C[C@](O)(C(=O)Nc1ccc2c(N)noc2c1)[C@H]1OCCN(c2ccn(-c3ccnc(C#N)n3)n2)C1=O` [Example 54, (R)—N-(3-aminobenzo[d]isoxazol-6-yl)-2-((R)-4-(1-(2-cyanopyrimidin-4-yl)-1H-pyrazol-3-yl)-3-oxomorpholin-2-yl)-2-hydroxypropanamide], the IC50 is 145 nM.

Consider `COc1cc(-n2ccc(N3CCO[C@](C)([C@@](C)(O)C(=O)Nc4ccc5c(N)noc5c4)C3=O)n2)cnn1` [Example 149, (R)—N-(3-aminobenzo[d]isoxazol-6-yl)-2-hydroxy-2-((R)-4-(1-(6-methoxypyridazin-4-yl)-1H-pyrazol-3-yl)-2-methyl-3-oxomorpholin-2-yl)propanamide], for which the IC50 was found to be 92.4 nM.

Consider `C[C@]1([C@@H](O)C(=O)Nc2ccc3c(N)noc3c2)OCCN(c2cccc(-c3ccc(OC(F)(F)F)cc3)n2)C1=O` [Example 109, (R)—N-(3-aminobenzo[d]isoxazol-6-yl)-2-hydroxy-2-((R)-2-methyl-3-oxo-4-(6-(4-(trifluoromethoxy)phenyl)pyridin-2-yl)morpholin-2-yl)acetamide], for which the IC50 stood at 380 nM.

For the molecule `COc1cc(-n2ccc(N3CC(C)(C)O[C@H]([C@@H](O)C(=O)Nc4ccc5c(N)noc5c4)C3=O)n2)cnn1` [Example 174, (R)—N-(3-aminobenzo[d]isoxazol-6-yl)-2-hydroxy-2-((R)-4-(1-(6-methoxypyridazin-4-yl)-1H-pyrazol-3-yl)-6,6-dimethyl-3-oxomorpholin-2-yl)acetamide], the IC50 worked out at 2.77 nM.

For the molecule `C[C@]1([C@@H](O)C(=O)Nc2ccc(CN)c(F)c2)OCCN(c2ccn(-c3ccncc3)n2)C1=O` [Example 153, (R)—N-(4-(aminomethyl)-3-fluorophenyl)-2-hydroxy-2-((R)-2-methyl-3-oxo-4-(1-(pyridin-4-yl)-1H-pyrazol-3-yl)morpholin-2-yl)acetamide], the IC50 was found to be 12.7 nM.

As to `C[C@](O)(C(=O)Nc1ccc2c(N)noc2c1)[C@H]1OCCN(c2nn(-c3ccnc(C#N)c3)cc2F)C1=O` [Example 31, (R)—N-(3-aminobenzo[d]isoxazol-6-yl)-2-((R)-4-(1-(2-cyanopyridin-4-yl)-4-fluoro-1H-pyrazol-3-yl)-3-oxomorpholin-2-yl)-2-hydroxypropanamide], the IC50 turned out to be 31 nM.

Turning to `COc1cc(-n2cc(F)c(N3CCO[C@H]([C@@](C)(O)C(=O)Nc4cc(Cl)c5c(N)noc5c4)C3=O)n2)cnn1` [Example 125, (R)—N-(3-amino-4-chlorobenzo[d]isoxazol-6-yl)-2-((R)-4-(4-fluoro-1-(6-methoxypyridazin-4-yl)-1H-pyrazol-3-yl)-3-oxomorpholin-2-yl)-2-hydroxypropanamide], the half-inhibitory concentration (IC50) was 45 nM.

For the molecule `COC(=O)c1cc(-n2ccc(N3CCO[C@](C)([C@@H](O)C(=O)Nc4ccc5c(N)noc5c4)C3=O)n2)ccn1` [Example 91, methyl 4-(3-((R)-2-((R)-2-((3-aminobenzo[d]isoxazol-6-yl)amino)-1-hydroxy-2-oxoethyl)-2-methyl-3-oxomorpholino)-1H-pyrazol-1-yl)picolinate], the IC50 came to 690 nM.

In the case of `C[C@](O)(C(=O)Nc1ccc2c(N)noc2c1)[C@H]1OCCN(c2ccn(-c3ccc(C#N)c(Cl)c3)n2)C1=O` [Example 16, (R)—N-(3-aminobenzo[d]isoxazol-6-yl)-2-((R)-4-(1-(3-chloro-4-cyanophenyl)-1H-pyrazol-3-yl)-3-oxomorpholin-2-yl)-2-hydroxypropanamide], the IC50 worked out at 137 nM.

For the molecule `C[C@]1([C@@H](O)C(=O)Nc2ccc3c(N)noc3c2)OCCN(c2cccc(C(F)(F)F)n2)C1=O` [Example 72, (R)—N-(3-Aminobenzo[d]isoxazol-6-yl)-2-hydroxy-2-((R)-2-methyl-3-oxo-4-(6-(trifluoromethyl)pyridin-2-yl)morpholin-2-yl)acetamide], the IC50 is 12.9 nM.

As to `COc1cc(-n2ccc(N3C[C@H](C)O[C@H]([C@@H](O)C(=O)Nc4ccc5c(N)noc5c4)C3=O)n2)cnn1` [Example 162, (R)—N-(3-aminobenzo[d]isoxazol-6-yl)-2-hydroxy-2-((2R,6S)-4-(1-(6-methoxypyridazin-4-yl)-1H-pyrazol-3-yl)-6-methyl-3-oxomorpholin-2-yl)acetamide], the IC50 turned out to be 2.61 nM.

For `COc1cc(-n2ccc(N3CCO[C@](C)([C@@H](O)C(=O)Nc4ccc5c(N)noc5c4)C3=O)n2)cnn1` [Example 98, (R)—N-(3-aminobenzo[d]isoxazol-6-yl)-2-hydroxy-2-((R)-4-(1-(6-methoxypyridazin-4-yl)-1H-pyrazol-3-yl)-2-methyl-3-oxomorpholin-2-yl)acetamide], the 50% inhibitory concentration (IC50) was found to be 3.71 nM.

For `COc1nccc(-c2ccc(N3CCO[C@H]([C@@](C)(O)C(=O)Nc4ccc5c(N)noc5c4)C3=O)o2)n1` [Example 64, (R)—N-(3-aminobenzo[d]isoxazol-6-yl)-2-hydroxy-2-((R)-4-(5-(2-methoxypyrimidin-4-yl)furan-2-yl)-3-oxomorpholin-2-yl)propanamide], the half-maximal inhibitory concentration (IC50) was 124 nM.

For `C[C@](O)(C(=O)Nc1cc(F)c2c(N)noc2c1)[C@H]1OCCN(c2nn(-c3ccnnc3)cc2F)C1=O` [Example 140, (R)—N-(3-amino-4-fluorobenzo[d]isoxazol-6-yl)-2-((R)-4-(4-fluoro-1-(pyridazin-4-yl)-1H-pyrazol-3-yl)-3-oxomorpholin-2-yl)-2-hydroxypropanamide], the IC50 was 5.61 nM.

In the case of `C[C@](O)(C(=O)Nc1cc(F)c2c(N)noc2c1)[C@H]1OCCN(c2ccn(-c3ccncc3)n2)C1=O` [Example 129, (R)—N-(3-amino-4-fluorobenzo[d]isoxazol-6-yl)-2-hydroxy-2-((R)-3-oxo-4-(1-(pyridin-4-yl)-1H-pyrazol-3-yl)morpholin-2-yl)propanamide], the IC50 came to 49.8 nM.

With `COc1cc(-n2ccc(N3CCO[C@H]([C@@](C)(O)C(=O)Nc4ccc5c(N)noc5c4)C3=O)n2)ncn1` [Example 56, (R)—N-(3-aminobenzo[d]isoxazol-6-yl)-2-hydroxy-2-((R)-4-(1-(6-methoxypyrimidin-4-yl)-1H-pyrazol-3-yl)-3-oxomorpholin-2-yl)propanamide], the IC50 was found to be 84.5 nM.

As for `COc1cc(-n2ccc(N3C[C@@H](C)O[C@H]([C@@H](O)C(=O)Nc4ccc5c(N)noc5c4)C3=O)n2)cnn1` [Example 159, (R)—N-(3-aminobenzo[d]isoxazol-6-yl)-2-hydroxy-2-((2R,6R)-4-(1-(6-methoxypyridazin-4-yl)-1H-pyrazol-3-yl)-6-methyl-3-oxomorpholin-2-yl)acetamide], the IC50 amounted to 2.26 nM.

Take `COc1cc(-n2ccc(N3C[C@H](C)O[C@H]([C@@H](O)C(=O)Nc4ccc5c(N)noc5c4)C3=O)n2)ccn1` [Example 167, (R)—N-(3-aminobenzo[d]isoxazol-6-yl)-2-hydroxy-2-((2R,6S)-4-(1-(2-methoxypyridin-4-yl)-1H-pyrazol-3-yl)-6-methyl-3-oxomorpholin-2-yl)acetamide]: the IC50 stood at 17.8 nM.

As to `C[C@](O)(C(=O)Nc1cc(Cl)c2c(N)noc2c1)[C@H]1OCCN(c2nn(-c3cnnc(C(F)(F)F)c3)cc2F)C1=O` [Example 126, (R)—N-(3-amino-4-chlorobenzo[d]isoxazol-6-yl)-2-((R)-4-(4-fluoro-1-(6-(trifluoromethyl)pyridazin-4-yl)-1H-pyrazol-3-yl)-3-oxomorpholin-2-yl)-2-hydroxypropanamide], the IC50 came out at 31.6 nM.

As for `Cn1ncc(-n2ccc(N3CCO[C@H]([C@@](C)(O)C(=O)Nc4ccc5c(N)noc5c4)C3=O)n2)cc1=O` [Example 44, (R)—N-(3-aminobenzo[d]isoxazol-6-yl)-2-hydroxy-2-((R)-4-(1-(1-methyl-6-oxo-1,6-dihydropyridazin-4-yl)-1H-pyrazol-3-yl)-3-oxomorpholin-2-yl)propanamide], the 50% inhibitory concentration (IC50) worked out at 812 nM.

For the molecule `COc1cc(-n2ccc(N3C[C@@H](C)O[C@H]([C@@H](O)C(=O)Nc4ccc5c(N)noc5c4)C3=O)n2)ccn1` [Example 168, (R)—N-(3-aminobenzo[d]isoxazol-6-yl)-2-hydroxy-2-((2R,6R)-4-(1-(2-methoxypyridin-4-yl)-1H-pyrazol-3-yl)-6-methyl-3-oxomorpholin-2-yl)acetamide], the IC50 was found to be 5.85 nM.

Take `C[C@](O)(C(=O)Nc1ccc(CN)c(F)c1)[C@H]1OCCN(c2ccn(-c3ccncc3)n2)C1=O` [Example 151, (R)—N-(4-(aminomethyl)-3-fluorophenyl)-2-hydroxy-2-((R)-3-oxo-4-(1-(pyridin-4-yl)-1H-pyrazol-3-yl)morpholin-2-yl)propanamide]: the IC50 is 70 nM.

In the case of `C[C@](O)(C(=O)Nc1ccc2c(N)noc2c1)[C@H]1OCCN(c2ccn(-c3ccc(F)cc3)n2)C1=O` [Example 13, (R)—N-(3-aminobenzo[d]isoxazol-6-yl)-2-((R)-4-(1-(4-fluorophenyl)-1H-pyrazol-3-yl)-3-oxomorpholin-2-yl)-2-hydroxypropanamide], the 50% inhibitory concentration (IC50) is 678 nM.

What is called IC50 is the midpoint of a concentration-inhibition curve.

These data come from patent US9708308B2, “Factor IXa inhibitors” (Merck Sharp & Dohme Corp., priority 2012, dated 2017).
